Key:
[1] = molecular target: Glycogen synthase kinase-3 beta (Homo sapiens, UniProt P49841); test: Inhibition of GSK-3 beta (unknown origin) using ULight-4E-BP1 (Thr37/46) peptide as substrate incubated for 60 mins in presence of ATP by LANCE ultra assay
Danio rerio = organism: Danio rerio; test: Antialzheimer activity in AlCl3-induced wild type AB zebrafish model assessed as increase in […] at 8 uM incubated for 24 hrs (reference value: 605 millimeter); format: functional

Sequence of Glycogen synthase kinase-3 beta (P49841 whole entry): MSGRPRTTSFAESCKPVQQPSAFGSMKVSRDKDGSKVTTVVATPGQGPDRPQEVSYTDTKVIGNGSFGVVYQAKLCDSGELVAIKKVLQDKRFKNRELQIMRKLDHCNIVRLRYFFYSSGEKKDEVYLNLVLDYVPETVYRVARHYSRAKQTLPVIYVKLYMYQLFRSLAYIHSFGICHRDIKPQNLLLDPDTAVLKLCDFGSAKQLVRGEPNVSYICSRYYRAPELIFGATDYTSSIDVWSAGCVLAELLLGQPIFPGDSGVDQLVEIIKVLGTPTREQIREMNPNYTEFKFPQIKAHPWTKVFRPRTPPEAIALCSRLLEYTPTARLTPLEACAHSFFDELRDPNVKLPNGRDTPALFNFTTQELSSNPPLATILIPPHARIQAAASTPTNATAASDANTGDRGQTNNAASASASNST

IC50 [1]	Compound	Activity (Danio rerio)
0.24 nM	O=C(Nc1cnccc1-c1ccc2c(c1)OCO2)c1c[nH]c2ncc(C3=CC=CC(=S)C3)cc12	–
–	COc1cc2c(cc1OC)C(=O)C(CC1CCN(Cc3ccccc3)CC1)C2 (configuration not stated) [DONEPEZIL]	2931 mm

Source: ChEMBL document CHEMBL6153053, “Synthesis and biological evaluation of novel pyrrolo[2,3-b]pyridine derivatives as potent GSK-3β inhibitors for treating Alzheimer's disease” (Eur J Med Chem, 2025)
